From patent publication US10251395B2, “Substituted furano-/thienocycloalkylamino-2-pyrimidine derivatives and use thereof for controlling undesired plant growth” (Bayer CropScience Aktiengesellschaft, priority 2015, dated 2019)

Key:
Setaria viridis [1] = experiment: Pre-emergence herbicidal effect; format: in vivo; details: scored visually after 3 weeks
Method in brief: (§1)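 Seeds sown in sandy loam and covered with soil; WP or EC formulations sprayed onto the soil surface as aqueous suspension/emulsion at 600 to 800 L/ha water with 0.2% wetting agent. Greenhouse-grown; damage scored visually after 3 weeks against untreated controls (100% = plants dead, 0% = like control).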

Abutilon theophrasti [2] = experiment: Pre-emergence herbicidal effect; format: in vivo; details: scored visually after 3 weeks
Method in brief: as §1

Amaranthus retroflexus [3] = experiment: Pre-emergence herbicidal effect; format: in vivo; details: scored visually after 3 weeks
Method in brief: as §1

Veronica persica [4] = experiment: Pre-emergence herbicidal effect; format: in vivo; details: scored visually after 3 weeks
Method in brief: as §1

Avena fatua = experiment: Pre-emergence herbicidal effect; format: in vivo; details: Dosage 320 g/ha, scored visually after 3 weeks
Method in brief: as §1

Polygonum convolvulus [5] = experiment: Pre-emergence herbicidal effect; format: in vivo; details: scored visually after 3 weeks
Method in brief: as §1

Echinochloa crus-galli [6] = experiment: Pre-emergence herbicidal effect; format: in vivo; details: scored visually after 3 weeks
Method in brief: as §1

Stellaria media [7] = experiment: Pre-emergence herbicidal effect; format: in vivo; details: scored visually after 3 weeks
Method in brief: as §1

Viola tricolor [8] = experiment: Pre-emergence herbicidal effect; format: in vivo; details: scored visually after 3 weeks
Method in brief: as §1

Matricaria inodora [9] = experiment: Pre-emergence herbicidal effect; format: in vivo; details: scored visually after 3 weeks
Method in brief: as §1

Alopecurus myosuroides [10] = experiment: Pre-emergence herbicidal effect; format: in vivo; details: scored visually after 3 weeks
Method in brief: as §1

Lolium multiflorum [11] = experiment: Pre-emergence herbicidal effect; format: in vivo; details: Dosage 320 g/ha, scored visually after 3 weeks
Method in brief: as §1

logP (HCOOH) = format: physicochemical; details: HCOOH
Description: Table 2 (physicochemical characterization of selected synthesis examples)

Setaria viridis [12] = experiment: Post-emergence herbicidal effect; format: in vivo; details: assessed visually after about 3 weeks vs untreated controls
Method in brief: (§2)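 Greenhouse weeds grown in sandy loam were sprayed at the one-leaf stage, 2–3 weeks after sowing, with WP or EC formulations in 600–800 L/ha water plus 0.2% wetting agent. Damage was scored visually after about 3 weeks as percent activity relative to untreated controls, where 100% means the plants died.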

Abutilon theophrasti [13] = experiment: Post-emergence herbicidal effect; format: in vivo; details: assessed visually after about 3 weeks vs untreated controls
Method in brief: as §2

Amaranthus retroflexus [14] = experiment: Post-emergence herbicidal effect; format: in vivo; details: assessed visually after about 3 weeks vs untreated controls
Method in brief: as §2

Veronica persica [15] = experiment: Post-emergence herbicidal effect; format: in vivo; details: assessed visually after about 3 weeks vs untreated controls
Method in brief: as §2

Polygonum convolvulus [16] = experiment: Post-emergence herbicidal effect; format: in vivo; details: assessed visually after about 3 weeks vs untreated controls
Method in brief: as §2

Ipomoea purpurea = experiment: Post-emergence herbicidal effect; format: in vivo; details: assessed visually after about 3 weeks vs untreated controls
Method in brief: as §2

Echinochloa crus-galli [17] = experiment: Post-emergence herbicidal effect; format: in vivo; details: assessed visually after about 3 weeks vs untreated controls
Method in brief: as §2

Stellaria media [18] = experiment: Post-emergence herbicidal effect; format: in vivo; details: assessed visually after about 3 weeks vs untreated controls
Method in brief: as §2

Viola tricolor [19] = experiment: Post-emergence herbicidal effect; format: in vivo; details: assessed visually after about 3 weeks vs untreated controls
Method in brief: as §2

Alopecurus myosuroides [20] = experiment: Post-emergence herbicidal effect; format: in vivo; details: assessed visually after about 3 weeks vs untreated controls
Method in brief: as §2

Lolium multiflorum [21] = experiment: Post-emergence herbicidal effect; format: in vivo; details: assessed visually after about 3 weeks vs untreated controls
Method in brief: as §2

Matricaria inodora [22] = experiment: Post-emergence herbicidal effect; format: in vivo; details: 320 g/ha, assessed visually after about 3 weeks vs untreated controls
Method in brief: as §2

Cyperus esculentus = experiment: Pre-emergence herbicidal effect; format: in vivo; details: Dosage 320 g/ha, scored visually after 3 weeks
Method in brief: as §1

Cc1cc2c(s1)C(Nc1ncc(C(F)(F)F)c(N)n1)CCC2 (racemic) [compound 55]
SETVI pre-emergence efficacy (herbicidal activity) (Setaria viridis [1]; Dosage 80 g/ha): 100%
SETVI pre-emergence efficacy (herbicidal activity) (Setaria viridis [1]; Dosage 320 g/ha): 100%
ABUTH pre-emergence efficacy (herbicidal activity) (Abutilon theophrasti [2]; Dosage 80 g/ha): 100%
ABUTH pre-emergence efficacy (herbicidal activity) (Abutilon theophrasti [2]; Dosage 320 g/ha): 100%
AMARE pre-emergence efficacy (herbicidal activity) (Amaranthus retroflexus [3]; Dosage 80 g/ha): 100%
AMARE pre-emergence efficacy (herbicidal activity) (Amaranthus retroflexus [3]; Dosage 320 g/ha): 100%
VERPE pre-emergence efficacy (herbicidal activity) (Veronica persica [4]; Dosage 80 g/ha): 100%
VERPE pre-emergence efficacy (herbicidal activity) (Veronica persica [4]; Dosage 320 g/ha): 100%
AVEFA pre-emergence efficacy (herbicidal activity) (Avena fatua): 100%
POLCO pre-emergence efficacy (herbicidal activity) (Polygonum convolvulus [5]; Dosage 320 g/ha): 90%
ECHCG pre-emergence efficacy (herbicidal activity) (Echinochloa crus-galli [6]; Dosage 80 g/ha): 100%
ECHCG pre-emergence efficacy (herbicidal activity) (Echinochloa crus-galli [6]; Dosage 320 g/ha): 100%
STEME pre-emergence efficacy (herbicidal activity) (Stellaria media [7]; Dosage 80 g/ha): 100%
STEME pre-emergence efficacy (herbicidal activity) (Stellaria media [7]; Dosage 320 g/ha): 100%
VIOTR pre-emergence efficacy (herbicidal activity) (Viola tricolor [8]; Dosage 80 g/ha): 100%
VIOTR pre-emergence efficacy (herbicidal activity) (Viola tricolor [8]; Dosage 320 g/ha): 100%
MATIN pre-emergence efficacy (herbicidal activity) (Matricaria inodora [9]; Dosage 80 g/ha): 100%
MATIN pre-emergence efficacy (herbicidal activity) (Matricaria inodora [9]; Dosage 320 g/ha): 100%
ALOMY pre-emergence efficacy (herbicidal activity) (Alopecurus myosuroides [10]; Dosage 80 g/ha): 90%
ALOMY pre-emergence efficacy (herbicidal activity) (Alopecurus myosuroides [10]; Dosage 320 g/ha): 100%
LOLMU pre-emergence efficacy (herbicidal activity) (Lolium multiflorum [11]): 100%
logP (HCOOH) (logP (HCOOH)): oily; logP (HCOOH): 2.46; 1H NMR (CDCl3, 400 MHZ, δ in ppm): 1.85-2.00 (m, 3H,
post-emergence efficacy SETVI (Setaria viridis [12]; 80 g/ha): 90%
post-emergence efficacy SETVI (Setaria viridis [12]; 320 g/ha): 90%
post-emergence efficacy ABUTH (Abutilon theophrasti [13]; 80 g/ha): 90%
post-emergence efficacy ABUTH (Abutilon theophrasti [13]; 320 g/ha): 90%
post-emergence efficacy AMARE (Amaranthus retroflexus [14]; 80 g/ha): 90%
post-emergence efficacy AMARE (Amaranthus retroflexus [14]; 320 g/ha): 100%
post-emergence efficacy VERPE (Veronica persica [15]; 80 g/ha): 90%
post-emergence efficacy VERPE (Veronica persica [15]; 320 g/ha): 100%
post-emergence efficacy POLCO (Polygonum convolvulus [16]; 80 g/ha): 90%
post-emergence efficacy POLCO (Polygonum convolvulus [16]; 320 g/ha): 90%
post-emergence efficacy PHBPU (Ipomoea purpurea; 80 g/ha): 100%
post-emergence efficacy PHBPU (Ipomoea purpurea; 320 g/ha): 100%
post-emergence efficacy ECHCG (Echinochloa crus-galli [17]; 80 g/ha): 100%
post-emergence efficacy ECHCG (Echinochloa crus-galli [17]; 320 g/ha): 100%
post-emergence efficacy STEME (Stellaria media [18]; 80 g/ha): 100%
post-emergence efficacy STEME (Stellaria media [18]; 320 g/ha): 100%
post-emergence efficacy VIOTR (Viola tricolor [19]; 80 g/ha): 90%
post-emergence efficacy VIOTR (Viola tricolor [19]; 320 g/ha): 100%
post-emergence efficacy ALOMY (Alopecurus myosuroides [20]; 80 g/ha): 90%
post-emergence efficacy ALOMY (Alopecurus myosuroides [20]; 320 g/ha): 90%
post-emergence efficacy LOLMU (Lolium multiflorum [21]; 80 g/ha): 80%
post-emergence efficacy LOLMU (Lolium multiflorum [21]; 320 g/ha): 90%

C/C(=N\OC(C)C)c1cnc(NC2CCCc3sc(C)cc32)nc1N (racemic) [compound 288]
SETVI pre-emergence efficacy (herbicidal activity) (Setaria viridis [1]; Dosage 320 g/ha): 100%
ABUTH pre-emergence efficacy (herbicidal activity) (Abutilon theophrasti [2]; Dosage 320 g/ha): 70%
AMARE pre-emergence efficacy (herbicidal activity) (Amaranthus retroflexus [3]; Dosage 320 g/ha): 100%
VERPE pre-emergence efficacy (herbicidal activity) (Veronica persica [4]; Dosage 80 g/ha): 100%
VERPE pre-emergence efficacy (herbicidal activity) (Veronica persica [4]; Dosage 320 g/ha): 100%
POLCO pre-emergence efficacy (herbicidal activity) (Polygonum convolvulus [5]; Dosage 80 g/ha): 80%
POLCO pre-emergence efficacy (herbicidal activity) (Polygonum convolvulus [5]; Dosage 320 g/ha): 100%
ECHCG pre-emergence efficacy (herbicidal activity) (Echinochloa crus-galli [6]; Dosage 320 g/ha): 100%
STEME pre-emergence efficacy (herbicidal activity) (Stellaria media [7]; Dosage 80 g/ha): 100%
STEME pre-emergence efficacy (herbicidal activity) (Stellaria media [7]; Dosage 320 g/ha): 100%
VIOTR pre-emergence efficacy (herbicidal activity) (Viola tricolor [8]; Dosage 80 g/ha): 70%
VIOTR pre-emergence efficacy (herbicidal activity) (Viola tricolor [8]; Dosage 320 g/ha): 100%
MATIN pre-emergence efficacy (herbicidal activity) (Matricaria inodora [9]; Dosage 80 g/ha): 100%
MATIN pre-emergence efficacy (herbicidal activity) (Matricaria inodora [9]; Dosage 320 g/ha): 100%
ALOMY pre-emergence efficacy (herbicidal activity) (Alopecurus myosuroides [10]; Dosage 320 g/ha): 80%
LOLMU pre-emergence efficacy (herbicidal activity) (Lolium multiflorum [11]): 100%
post-emergence efficacy ABUTH (Abutilon theophrasti [13]; 320 g/ha): 90%
post-emergence efficacy AMARE (Amaranthus retroflexus [14]; 320 g/ha): 90%
post-emergence efficacy VERPE (Veronica persica [15]; 320 g/ha): 100%
post-emergence efficacy POLCO (Polygonum convolvulus [16]; 320 g/ha): 70%
post-emergence efficacy PHBPU (Ipomoea purpurea; 320 g/ha): 70%
post-emergence efficacy STEME (Stellaria media [18]; 320 g/ha): 80%
post-emergence efficacy VIOTR (Viola tricolor [19]; 80 g/ha): 70%
post-emergence efficacy VIOTR (Viola tricolor [19]; 320 g/ha): 90%
post-emergence efficacy MATIN (Matricaria inodora [22]): 90%
post-emergence efficacy ALOMY (Alopecurus myosuroides [20]; 320 g/ha): 70%
post-emergence efficacy LOLMU (Lolium multiflorum [21]; 320 g/ha): 60%

Cc1cc2c(s1)CCCC2Nc1nc(N)c(Br)c(C(C)(C)F)n1 (racemic) [compound 307]
POLCO pre-emergence efficacy (herbicidal activity) (Polygonum convolvulus [5]; Dosage 320 g/ha): 70%
VIOTR pre-emergence efficacy (herbicidal activity) (Viola tricolor [8]; Dosage 320 g/ha): 100%
CYPES pre-emergence efficacy (herbicidal activity) (Cyperus esculentus): 60%
MATIN pre-emergence efficacy (herbicidal activity) (Matricaria inodora [9]; Dosage 320 g/ha): 50%
